21 compounds from patent publication US20250332173A1, “COMPOUNDS AND METHODS FOR MODULATING NUCLEIC ACID SPLICING” (REMIX THERAPEUTICS INC., priority 2021, published 2025) can be followed below.

Common to all, as to assay type: cell-based, human
The subject of one test is HTT. Put plainly: HiBiT protein abundance assay, HTT HiBiT K562 cell line. The following applies: HiBiT K562 cell line, 24 hours, top dose 10 μM; read-out: Effect on protein abundance, HTT (IC50 category). In outline:
(§1)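 K562 knock-in lines with endogenous HiBiT-tagged target, 10,000 cells/well in IMDM + FBS, treated 24 h at 37° C with 10-point 3-fold dilutions (top 10 μM final; DMSO ≤0.25%). Lytic Nano-Glo HiBiT luminescence normalized to untagged K562 baseline and DMSO controls; IC50 = concentration giving 50% abundance via four-parameter fit.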
Background: HiBiT is a short tag that completes a luciferase, so light tracks the accessible tagged protein.

In a further test the test system is MYB. Put plainly: HiBiT protein abundance assay, MYB HiBiT K562 cell line. Conditions: HiBiT K562 cell line, 24 hours, top dose 10 μM; read-out: Effect on protein abundance, MYB (IC50 category). Put shortly: as §1
The subject of the next test is Target C. Put plainly: RT-qPCR splicing assay panel, Target C canonical junction (CJ) mRNA. Conditions: Homo sapiens; canonical junction qPCR panel, Table 5; read-out: Target C (decrease in CJ mRNA levels, IC50). In outline: (§2)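 Canonical-junction transcript levels in compound-treated A673 or K562 cells (24 h, up to 10 uM final) were determined from lysates by RT-qPCR with housekeeping-gene normalization.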

For a further test, the system named is SMN2 mRNA. Put plainly: RT-qPCR splicing assay, SMN2 canonical junction (CJ) mRNA. The following applies: Homo sapiens; canonical junction qPCR panel, Table 5; read-out: SMN2 (decrease in CJ mRNA levels, IC50). In outline:
as §2
A general note: Quantitative PCR measures a nucleic acid by following its amplification.

Take `Cc1c(O)c(-c2ncc3c(=O)n([C@@H]4C[C@H]5CC[C@@H](C4)N5)ccc3n2)cc2cn(C)nc12` [Compound 1429, 6-[(1S,5R)-8-azabicyclo[3.2.1]octan-3-yl]-2-(6-hydroxy-2,7-dimethyl-indazol-5-yl)pyrido[4,3-d]pyrimidin-5-one]: the IC50 (usually the concentration that inhibits the measured activity by half) in the test on HTT is 100 to 1000 nM; in the test with MYB, under 100 nM; in the test on Target C, 1000 to 10000 nM; with SMN2 mRNA it was under 100 nM.

On to `Cc1c(O)c(-c2ncc3c(=O)n([C@H]4C[C@@H](N)C4)ccc3n2)cc2cn(C)nc12` [Compound 1431, 6-((1s,3s)-3-aminocyclobutyl)-2-(6-hydroxy-2,7-dimethyl-2H-indazol-5-yl)pyrido[4,3-d]pyrimidin-5(6H)-one], for which the IC50 in the test with HTT lay within 1000 to 10000 nM; in the test on MYB, 100 to 1000 nM; in the test with Target C it was 1000 to 10000 nM; with SMN2 mRNA, 100 to 1000 nM.

As for `Cc1c(O)c(-c2ncc3c(=O)n([C@H]4C[C@H](N)C4)ccc3n2)cc2cn(C)nc12` [Compound 1432, 6-((1r,3r)-3-aminocyclobutyl)-2-(6-hydroxy-2,7-dimethyl-2H-indazol-5-yl)pyrido[4,3-d]pyrimidin-5(6H)-one], the IC50 is 1000 to 10000 nM in the test with HTT, 100 to 1000 nM with MYB, 1000 to 10000 nM in the test with Target C and under 100 nM in the test on SMN2 mRNA.

As to `Cc1c(O)c(-c2ncc3c(=O)n([C@@H]4CCN[C@H](C)C4)ccc3n2)cc2cn(C)nc12` [Compound 1434, 2-(6-hydroxy-2,7-dimethyl-indazol-5-yl)-6-(2-methyl-4-piperidyl)pyrido[4,3-d]pyrimidin-5-one], the IC50 in the test with HTT is 100 to 1000 nM; in the test with MYB it was 100 to 1000 nM; with Target C it was 1000 to 10000 nM; in the test with SMN2 mRNA, under 100 nM.

Turning to `Cc1c(O)c(-c2ncc3c(=O)n([C@H]4CCNC(C)(C)C4)ccc3n2)cc2cn(C)nc12` [Compound 1436], the IC50 in the test with HTT is 100 to 1000 nM; with MYB it was under 100 nM; in the test with Target C, 1000 to 10000 nM; with SMN2 mRNA, under 100 nM.

On to `Cc1cn2nc(-c3ccc4c(=O)n([C@H]5CCNC5)ccc4n3)cc(C)c2n1` [Compound 1437, 2-(2,8-dimethylimidazo[1,2-b]pyridazin-6-yl)-6-[(3S)-pyrrolidin-3-yl]-1,6-aphthyridin-5-one], for which the IC50 with HTT is 1000 to 10000 nM; with MYB, 100 to 1000 nM; with Target C, 1000 to 10000 nM; with SMN2 mRNA, under 100 nM.

Turning to `Cc1cn2nc(-c3ccc4c(=O)n([C@@H]5CCNC5)ccc4n3)cc(C)c2n1` [Compound 1438, 2-(2,8-dimethylimidazo[1,2-b]pyridazin-6-yl)-6-[(3R)-pyrrolidin-3-yl]-1,6-naphthyridin-5-one], the IC50 with HTT is 1000 to 10000 nM; in the test on MYB, 100 to 1000 nM; with Target C, 1000 to 10000 nM; in the test on SMN2 mRNA, under 100 nM.

As for `Cc1c(O)c(-c2ncc3c(=O)n([C@H]4CCN[C@@H](C)C4)ccc3n2)cc2cn(C)nc12` [Compound 1441, 2-(6-hydroxy-2,7-dimethyl-indazol-5-yl)-6-(2-methyl-4-piperidyl)pyrido[4,3-d]pyrimidin-5-one], the IC50 was under 100 nM with HTT, under 100 nM with MYB, 100 to 1000 nM in the test with Target C and under 100 nM in the test with SMN2 mRNA.

Consider `Cc1c(O)c(-c2ncc3c(=O)n(C4CCNC(C)(C)C4)ccc3n2)cc2cn(C)nc12` (stereo not drawn) [Compound 1442], for which the IC50 was 100 to 1000 nM with HTT, under 100 nM with MYB, 1000 to 10000 nM in the test with Target C and under 100 nM in the test with SMN2 mRNA.

On to `Cc1c(O)c(-c2ncc3c(=O)n([C@@H]4C[C@H]5C[C@@H]4CN5)ccc3n2)cc2cn(C)nc12` [Compound 1445, 6-[(1R,4R,5R)-2-azabicyclo[2.2.1]heptan-5-yl]-2(6-hydroxy-2,7-dimethyl-indazol-5-yl)pyrido[4,3-d]pyrimidin-5-one], for which the IC50 was over 10000 nM in the test with HTT, 1000 to 10000 nM in the test with MYB, over 10000 nM in the test on Target C and 100 to 1000 nM with SMN2 mRNA.

Consider `Cc1c(O)c(-c2ccc3c(=O)n(C4CC(C)NC(C)C4)ccc3n2)cc2cn(C)nc12` (stereo not drawn) [Compound 1447, 6-(2,6-dimethyl-4-piperidyl)-2-(6-hydroxy-2,7-dimethyl-indazol-5-yl)-1,6-naphthyridin-5-one], for which the IC50 is 100 to 1000 nM in the test with HTT, under 100 nM in the test with MYB, 1000 to 10000 nM in the test on Target C and under 100 nM in the test on SMN2 mRNA.

As to `Cc1cn2cc(-c3cc(O)c4c(=O)n(C5CCNCC5)ccc4n3)cc(F)c2n1` [Compound 1448], the IC50 is 100 to 1000 nM in the test on HTT, 100 to 1000 nM in the test with MYB, 1000 to 10000 nM in the test on Target C and under 100 nM in the test with SMN2 mRNA.

On to `Cc1c(O)c(-c2ccc3c(=O)n([C@H]4CCNC4)ccc3n2)cc2cn(C)nc12` [Compound 1449, 2-(6-hydroxy-2,7-dimethyl-indazol-5-yl)-6-[(3S)-pyrrolidin-3-yl]-1,6-naphthyridin-5-one], for which the IC50 is 1000 to 10000 nM in the test with HTT, 100 to 1000 nM in the test on MYB, over 10000 nM with Target C and under 100 nM in the test with SMN2 mRNA.

As for `Cc1c(O)c(-c2ccc3c(=O)n([C@@H]4CCNC4)ccc3n2)cc2cn(C)nc12` [Compound 1450, 2-(6-hydroxy-2,7-dimethyl-indazol-5-yl)-6-[(3R)-pyrrolidin-3-yl]-1,6-naphthyridin-5-one], the IC50 in the test with HTT is 1000 to 10000 nM; in the test with MYB it was 100 to 1000 nM; in the test on Target C it was over 10000 nM; with SMN2 mRNA, under 100 nM.

For `Cn1cc2cc(-c3ccc4c(=O)n([C@H]5CCNC5)ccc4n3)c(O)c(F)c2n1` [Compound 1451, 2-(7-fluoro-6-hydroxy-2-methyl-indazol-5-yl)-6-[(3S)-pyrrolidin-3-yl]-1,6-naphthyridin-5-one], the IC50 was 100 to 1000 nM with HTT, 100 to 1000 nM with MYB, 100 to 1000 nM with Target C and under 100 nM in the test with SMN2 mRNA.

Take `Cn1cc2cc(-c3ccc4c(=O)n([C@@H]5CCNC5)ccc4n3)c(O)c(F)c2n1` [Compound 1452, 2-(7-fluoro-6-hydroxy-2-methyl-indazol-5-yl)-6-[(3R)-pyrrolidin-3-yl]-1,6-naphthyridin-5-one]: the IC50 in the test on HTT is 100 to 1000 nM; in the test on MYB, 100 to 1000 nM; in the test on Target C it was 100 to 1000 nM; in the test with SMN2 mRNA it was under 100 nM.

In the case of `Cc1c(O)c(-c2ncc3c(=O)n([C@@H]4C[C@@H](C)N[C@@H](C)C4)ccc3n2)cc2cn(C)nc12` [Compound 1453, 6-[(2S,6R)-2,6-dimethyl-4-piperidyl]-2-(6-hydroxy-2,7-dimethyl-indazol-5-yl)pyrido[4,3-d]pyrimidin-5-one], the IC50 in the test on HTT was 1000 to 10000 nM; in the test on MYB it was 100 to 1000 nM; in the test with Target C it was over 10000 nM; in the test with SMN2 mRNA, under 100 nM.

For the compound `Cc1c(O)c(-c2ncc3c(=O)n(C4C[C@@H](C)N[C@H](C)C4)ccc3n2)cc2cn(C)nc12` (stereo partly drawn) [Compound 1454, 6-[(2R,6R)-2,6-dimethyl-4-piperidyl]-2-(6-hydroxy-2,7-dimethyl-indazol-5-yl)pyrido[4,3-d]pyrimidin-5-one], the IC50 in the test with HTT was 100 to 1000 nM; in the test with MYB it was 100 to 1000 nM; in the test on Target C, 1000 to 10000 nM; with SMN2 mRNA, under 100 nM.

On to `Cc1c(O)c(-c2ncc3c(=O)n(C4C[C@H](C)N[C@@H](C)C4)ccc3n2)cc2cn(C)nc12` (stereo partly drawn) [Compound 1455, 6-[(2S,6S)-2,6-dimethyl-4-piperidyl]-2-(6-hydroxy-2,7-dimethyl-indazol-5-yl)pyrido[4,3-d]pyrimidin-5-one], for which the IC50 was 100 to 1000 nM in the test with HTT, under 100 nM with MYB, 1000 to 10000 nM with Target C and under 100 nM with SMN2 mRNA.

Regarding `Cc1cn2cc(-c3cc(F)c4c(=O)n([C@@H]5CNC[C@H]5F)ccc4c3)cc(F)c2n1` [Compound 1456], the IC50 was 1000 to 10000 nM with HTT, 1000 to 10000 nM with MYB, over 10000 nM with Target C and 100 to 1000 nM in the test with SMN2 mRNA.

With `Cc1cn2cc(-c3ncc4c(=O)n([C@@H]5CCNC6(CC6)C5)ccc4n3)cc(F)c2n1` [Compound 1457, 6-[(7R)-4-azaspiro[2.5]octan-7-yl]-2-(8-fluoro-2-methyl-imidazo[1,2-a]pyridin-6-yl)pyrido[4,3-d]pyrimidin-5-one], the IC50 with HTT is 100 to 1000 nM; in the test with MYB it was 100 to 1000 nM; in the test on Target C it was 1000 to 10000 nM; in the test on SMN2 mRNA, under 100 nM.
